Experimental data as given in patent US10781214B2, “Kinase inhibitor against wild-type and mutant EGFR” (PRECEDO PHARMACEUTICALS CO., LTD, priority 2015, dated 2020).

Tests used:
Type in all cases: cell-based
[1] = system: BaF3-TEL-EGFR-L858R (stably expressing EGFR L858R mutant kinase); assay: Cell growth, Cell Titer-Glo, 72 h: BaF3-TEL-EGFR-L858R; details: Mus musculus, BaF3-TEL-EGFR-L858R cells, read-out: GI50
Description: (§1) In addition, this example further uses: mouse BaF3-TEL-EGFR (stably expressing wild-type EGFR kinase), mouse BaF3-TEL-EGFR-L858R (stably expressing EGFR L858R mutant kinase), mouse BaF3-TEL-EGFR-T790M (stably expressing EGFR T790M mutant kinase), mouse BaF3-FL-EGFR-DeI19 (stably expressing EGFR delE746_A750 mutant kinase), mouse BaF3-FL-EGFR-T790M-L858R (stably expressing EGFR T790M/L858R mutant kinase), mouse BaF3/P210 (stably expressing bcr/abl˜(P210) mutant kinase), mouse BaF3-TEL-ABL-T315I (stably expressing ABLT315I mutant kinase), mouse BaF3-FLT3-ITD (stably expressing FLT3/ITD mutant kinase), mouse BaF3-TEL-JAK2 (stably expressing JAK2 kinase), mouse BaF3-TEL-JAK3 (stably expressing JAK3 kinase), mouse BaF3-TPR-MET (stably expressing MET kinase), mouse BaF3-TEL-BLK (stably expressing BLK kinase), mouse BaF3-TEL-ABL (stably expressing ABL kinase), mouse BaF3-TEL-BMX (stably expressing BMX kinase), mouse BaF3-TEL-ALK (stably expressing ALK kinase). The above cell lines were all constructed by our laboratory according to the following method: the kinase region sequences of human […], EGFR L858R, EGFR T790M, EGFR delE746_A750, EGFR T790M/L858R, bcr/abl˜(P210), ABL T315I, FLT3/ITD, JAK2, JAK3, MET, BLK, ABL, BMX, ALK were amplified respectively by PCR, inserted respectively into MSCV-Puro vectors harboring N-terminal fragment and/or NPM fragment and/or TPR fragment (Clontech), then the vectors were stably transfected into mouse BaF3 cells by retrovirus methods and growth factor IL-3 was removed, eventually obtaining cell lines that are transferred protein (EGFR, EGFR L858R, EGFR T790M, EGFR delE746_A750, EGFR T790M/L858R, bcr/abl˜(P210), ABL T315I, FLT3/ITD, JAK2, JAK3, MET, BLK, ABL, BMX, ALK)-dependent.
(§2) The cells were incubated for 72 h, and then the number of viable cells was determined via quantitative determination with a microplate reader by using Cell Titer-Glo® (Promega, the USA) Luminescent Cell Viability Assay kit.

[2] = system: NCI-H1975 (expressing EGFR L858R/T790M double-mutant gene); assay: Cancer cell growth, Cell Titer-Glo, 72 h: NCI-H1975; details: Homo sapiens; NCI-H1975 cells, 72 h; read-out: GI50
Description: (§3) Compounds of the present invention were further evaluated for their selectivity in inhibiting proliferation of cancer cells by testing effects of the novel kinase inhibitors on proliferation of cancer cells. In the examples the following cells were selected: human non-small cell lung cancer cell NCI-H1975 (expressing EGFR L858R/T790M double-mutant gene), human-derived non-small cell lung cancer cell PC-9 (expressing EGFR delE746_A750 mutant gene), human-derived non-small cell lung cancer cell HCC827 (expressing EGFR delE746_A750 mutant gene), human lung adenocarcinoma cell HCC4006 (expressing EGFR delE746_A750 mutant gene), human non-small cell lung cancer cell NCI-H3255 (expressing EGFR L858R mutant gene), human skin squamous carcinoma cell A431 (expressing wild-type EGFR gene), human non-small cell lung cancer cell A549 (expressing wild-type EGFR gene), human non-small cell lung cancer cell NCI-H460 (expressing wild-type EGFR gene), human non-small cell lung cancer cell NCI-H2122 (expressing wild-type EGFR gene), Chinese hamster ovary (CHO) cell (Cricetulus griseus, hamster, Chinese, ovary), Chinese hamster lung cell (CHL), mouse pro-B cell BaF3. The cells above were all purchased from (USA).
as §2

[3] = system: BaF3-FL-EGFR-T790M-L858R (stably expressing EGFR T790M/L858R mutant kinase); assay: Cell growth, Cell Titer-Glo, 72 h: BaF3-FL-EGFR-T790M-L858R; details: Mus musculus, BaF3-FL-EGFR-T790M-L858R cells
Description: as §1, §2

[4] = system: NCI-H3255 (expressing EGFR L858R mutant gene); assay: Cancer cell growth, Cell Titer-Glo, 72 h: NCI-H3255; details: Homo sapiens; NCI-H3255 cells, 72 h; read-out: GI50
Description: as §3, §2

[5] = system: NCI-H2122 (expressing wild-type EGFR gene); assay: Cancer cell growth, Cell Titer-Glo, 72 h: NCI-H2122; details: Homo sapiens, NCI-H2122 cells
Description: as §3, with “The cells above were all purchased from (USA).” left out
as §2

[6] = system: BaF3-TEL-EGFR (stably expressing wild-type EGFR kinase); assay: Cell growth, Cell Titer-Glo, 72 h: BaF3-TEL-EGFR; details: Mus musculus, BaF3-TEL-EGFR cells, read-out: GI50
Description: as §1, §2

[7] = system: PC-9 (expressing EGFR delE746_A750 mutant gene); assay: Cancer cell growth, Cell Titer-Glo, 72 h: PC-9; details: Homo sapiens; PC-9 cells, 72 h; read-out: GI50
Description: as §3, §2

[8] = system: HCC827 (expressing EGFR delE746_A750 mutant gene); assay: Cancer cell growth, Cell Titer-Glo, 72 h: HCC827; details: Homo sapiens; HCC827 cells, 72 h; read-out: GI50
Description: as §3, §2

[9] = system: mouse pro-B cell BaF3; assay: Cell growth, Cell Titer-Glo, 72 h: BaF3; details: BaF3 cells, 72 h, read-out: GI50
Description: as §3, §2

[10] = system: A431 (expressing wild-type EGFR gene); assay: Cancer cell growth, Cell Titer-Glo, 72 h: A431; details: Homo sapiens, A-431; A431 cells, 72 h; read-out: GI50
Description: as §3, §2

[11] = system: A549 (expressing wild-type EGFR gene); assay: Cancer cell growth, Cell Titer-Glo, 72 h: A549; details: Homo sapiens; A549 cells, 72 h; read-out: GI50
Description: as §3, §2

[12] = system: BaF3-FL-EGFR-Del19 (stably expressing EGFR delE746_A750 mutant kinase); assay: Cell growth, Cell Titer-Glo, 72 h: BaF3-FL-EGFR-Del19; details: Mus musculus, BaF3-FL-EGFR-Del19 cells
Description: In addition, this example further uses: mouse BaF3-TEL-EGFR (stably expressing wild-type EGFR kinase), mouse BaF3-TEL-EGFR-L858R (stably expressing EGFR L858R mutant kinase), mouse BaF3-TEL-EGFR-T790M (stably expressing EGFR T790M mutant kinase), mouse BaF3-FL-EGFR-DeI19 (stably expressing EGFR delE746_A750 mutant kinase), mouse BaF3-FL-EGFR-T790M-L858R (stably expressing EGFR T790M/L858R mutant kinase), mouse BaF3/P210 (stably expressing bcr/abl˜(P210) mutant kinase), mouse BaF3-TEL-ABL-T315I (stably expressing ABLT315I mutant kinase), mouse BaF3-FLT3-ITD (stably expressing FLT3/ITD mutant kinase), mouse BaF3-TEL-JAK2 (stably expressing JAK2 kinase), mouse BaF3-TEL-JAK3 (stably expressing JAK3 kinase), mouse BaF3-TPR-MET (stably expressing MET kinase), mouse BaF3-TEL-BLK (stably expressing BLK kinase), mouse BaF3-TEL-ABL (stably expressing ABL kinase), mouse BaF3-TEL-BMX (stably expressing BMX kinase), mouse BaF3-TEL-ALK (stably expressing ALK kinase). […]
as §2

[13] = system: BaF3-TEL-EGFR-T790M (stably expressing EGFR T790M mutant kinase); assay: Cell growth, Cell Titer-Glo, 72 h: BaF3-TEL-EGFR-T790M; details: Mus musculus, BaF3-TEL-EGFR-T790M cells, read-out: GI50
Description: as §1, §2

Compound	GI50 [1] [nM]	GI50 [2] [nM]	GI50 [3] [nM]	GI50 [4] [nM]	GI50 [5] [nM]	GI50 [6] [nM]	GI50 [7] [nM]	GI50 [8] [nM]	GI50 [9] [nM]	GI50 [10] [nM]	GI50 [11] [nM]	GI50 [12] [nM]	GI50 [13] [nM]
C=CC(=O)N1CC[C@@H](n2nc(-c3ccc(OCc4cccc(F)c4)c(Cl)c3)c3c(N)ncnc32)C1 [Compound 4, (R)-1-(3-(4-amino-3-(3-chloro-4-((3-fluorobenzyl)oxy)phenyl)-1H-pyrazolo[3,4-d]pyrimidin-1-yl)pyrrolidin-1-yl)prop-2-en-1-one]	< 0.3	53	< 0.3	28	130	13	28	38	4100	17	3700	–	–
CCC(=O)N1CCC[C@@H](n2nc(-c3ccc(OCc4cccc(F)c4)c(Cl)c3)c3c(N)ncnc32)C1 [Compound 51, (R)-1-(3-(4-amino-3-(3-chloro-4-((3-fluorobenzyl)oxy)phenyl)-1H-pyrazolo[3,4-d]pyrimidin-1-yl)piperidin-1-yl)propan-1-one]	940	2700	1700	> 10000	3900	3700	3200	3900	9200	9000	> 10000	1200	1100
